Reference: patent US20240145091A1, “METHOD FOR MODULATING THE AMOUNT OF VIRUS, METHOD FOR TREATING OR […] […], METHOD FOR […] AMOUNT OF VIRUS, AND METHOD FOR PREDICTING THE PROGNOSIS OF VIRUS INFECTION DISEASE IN SUBJECT, AS WELL AS COMPOSITION AND SYSTEM FOR THE SAME” (National Institutes of Biomedical Innovation, Health and …, priority 2022, published 2024)

What was measured:
SARS-CoV-2 = assay: COVID-19 model mice study: body weight and survival after D-Ala administration; assay type: in vivo, CAG-hACE2 mice
Description: FIG. 10 is a schematic diagram of the experimental protocol using coronavirus-infected mice in Example 2. CAG-hACE2 mice susceptible to SARS-CoV-2, which were developed at the National Institute of Biomedical Innovation, Health and Nutrition, were used. 2×10^2 to 10^4 of TCID50 of SARS-CoV-2 was administered to anesthetized 8—to 12-week-old individuals for bronchial infection to create a mouse model of coronavirus infection (Non-Patent Literature 9).
FIG. 12 is a schematic diagram of the experimental schedule of D-Ala administration to coronavirus-infected mice in Example 2. 8—to 12-week-old male and female CAG-hACE2 mice were subjected to intraperitoneal administration with a predetermined dose of D-Ala twice daily, which was stared from 2 days prior to the experiment. The mice were then infected with SARS-CoV-2 via the respiratory tract.

[1] = test system: H1N1 influenza A/Puerto Rico/8/34 (PR8 influenza virus strain); assay: Viral plaque quantification assay of lung tissue in influenza model mice; assay type: in vivo, C57BL6 mice; details: FIG. 3A; day 5 after D-Ala administration; IAV+D-Ala vs IAV group, n=3 to 7
Excerpt: (§1) FIG. 1 is a schematic diagram showing the experimental protocol for D-AA administration (+D-AA) to IAV and Mock in Example 1. C57BL6 mice (SLC, Tokyo, Japan) raised in a specific pathogen control facility were used. In order to increase the amount of virus in the mice in a short period of time, […] water containing 50 times the TCID50 (median tissue culture infectious dose, 50% infectious dose) of H1N1 influenza A/Puerto Rico/8/34 (PR8 influenza virus strain (ATCC, Manassas, USA) was administered intranasally to anesthetized 4-week-old individuals to infect them. After infection, individuals in each group were weighed and blood samples were collected on a predetermined schedule, and plasma chiral amino acids (D-amino acids and L-amino acids) were quantitatively analyzed by 2D-HPLC.
FIG. 3A is a graph showing the results of the viral plaque quantification assay of lung tissue on day 5 after D-Ala administration in the Mock, IAV, and IAV+D-Ala groups (n=3 to 7) in Example 1.

[2] = test system: H1N1 influenza A/Puerto Rico/8/34 (PR8 influenza virus strain); assay: Influenza model mice study: body weight and survival after D-amino acid administration; assay type: in vivo, C57BL6 mice
Excerpt: as §1

[3] = FIG. 8, IAV (Vehicle), IAV+D-Ser, IAV+D-Ala groups
[4] = FIG. 9, IAV (Vehicle), IAV+D-Ser, IAV+D-Ala groups

SMILES | survival curves, Kaplan-Meier analysis with death as the endpoint (SARS-CoV-2; FIG. 14, SCV (Vehicle) vs SCV+D-Ala) | rates of change in body weights over time (SARS-CoV-2; FIG. 17, SCV (Vehicle) vs SCV+D-Ala) | survival curves, Kaplan-Meier analysis with weight loss and death as composite endpoints (SARS-CoV-2; FIG. 18, SCV (Vehicle) vs SCV+D-Ala) | survival curves by blood D-Ala level, Kaplan-Meier analysis with death as the endpoint (SARS-CoV-2; FIG. 19, SCV+D-Ala group split into high (>4.72 μM) and low (<4.72 μM) BD-Ala) | amount of virus, viral plaque quantification assay of lung tissue [1] | rates of change in body weight ([2]; FIG. 2, IAV+D-Ala vs IAV group, n=3-10, *P<0.05) | survival curves, Kaplan-Meier analysis with death as the endpoint ([2]; FIG. 4, Mock, Mock+D-Ala, IAV, IAV+D-Ala groups, n=3-10) | survival curves, Kaplan-Meier analysis with death as the endpoint [2, 3] | rates of change in body weight [2, 4]
C[C@@H](N)C(=O)O [D-Ala, D-alanine] | suppressed the mortality | smaller rate of decrease in body weights | suppressed the weight loss and the mortality | better prognosis | increase in the amount of virus in the IAV+D-Ala group was suppressed | rates of weight loss were suppressed | suppressed the mortality rate | suppressed the mortality | rates of weight loss were suppressed
N[C@H](CO)C(=O)O [D-Ser, D-serine] | – | – | – | – | – | – | – | suppressed the mortality | rates of weight loss were suppressed
